{"source": "patent EP0139005A1", "about": "“ANTITUMOR COMPOSITION, METHOD FOR TREATING TUMOR, AND USE OF THE COMPOSITION FOR TREATING TUMOR” (Yoshitomi Pharmaceutical Industries, Ltd., priority 1982, dated 1984)", "key": {"[1]": {"system": "IMC carcinoma", "experiment": "IMC carcinoma implanted intraperitoneally, survival (Experimental Example 1)", "assay_type": "in vivo, female CDF1 mice", "settings": "for 30-day Survivors / Average Survival Time / Life-Prolongation Ratio (%): once daily for seven days", "description": "A plurality of groups each consisting of five heads of female CDF1 mice (7-8 weeks old) were implanted intraperitoneally with 10^6 cells of IMC carcinoma. After 24 hours, Y-6430 was respectively administered once daily for seven days, and average survival times, life-prolongation ratios and 30-day survivors were calculated.\nThe life-prolongation ratio was calculated by the following scheme (the same scheme is applied to the subsequent experimental examples).\nLife-prolongation Ratio [formula] T : Average survival days of the treated group\nC : Average survival days of the control group\nAnimals survived over 30 days or longer were estimated as 30-day survivors, and the cases where T/C equals to or greater than 125% were regarded as effective."}, "[2]": {"system": "human breast carcinoma MX-1", "experiment": "Human breast carcinoma MX-1 implanted into kidneys, tumor weight change (Experimental Example 10)", "assay_type": "in vivo, male Swiss nude mice", "settings": "5th day and 9th day, tumor weight change on 11th day, experiment conducted by National Cancer Institute", "description": "A plurality of groups each consisting of six male Swiss nude mice as test groups and twelve of them as the control group were implanted into the respective kidneys with human breast carcinoma MX-1. Each of the animals was administered subcutaneously with Y-6430 dissolved in physiological saline on the next day to the implantation, 5th day and 9th day. On llth day, each of the weight of carcinoma was measured, and the tumor weight change (%) of the implanted carcinoma was calculated in accordance with the following scheme."}}, "data": [{"smiles": "CCOC(=O)[C@@H](N)CSC(=O)NC.Cl", "note": "[Y-6430, S-methylcarbamoyl-L-cysteine ethyl ester hydrochloride]", "values": [{"measurement": "30-day Survivors", "setting": "[1]; 100 mg/kg/day i.p.", "result": "0/5"}, {"measurement": "Average Survival Time", "setting": "[1]; 100 mg/kg/day i.p.", "result": 24.0, "unit": "days"}, {"measurement": "Life-Prolongation Ratio (%)", "setting": "[1]; 100 mg/kg/day i.p.", "result": 218, "unit": "%"}, {"measurement": "30-day Survivors", "setting": "[1]; 100 mg/kg/day p.o.", "result": "0/5"}, {"measurement": "Average Survival Time", "setting": "[1]; 100 mg/kg/day p.o.", "result": 12.6, "unit": "days"}, {"measurement": "Life-Prolongation Ratio (%)", "setting": "[1]; 100 mg/kg/day p.o.", "result": 115, "unit": "%"}, {"measurement": "30-day Survivors", "setting": "[1]; 250 mg/kg/day i.p.", "result": "1/5"}, {"measurement": "Average Survival Time", "setting": "[1]; 250 mg/kg/day i.p.", "result": 25.0, "unit": "days"}, {"measurement": "Life-Prolongation Ratio (%)", "setting": "[1]; 250 mg/kg/day i.p.", "result": 227, "unit": "%"}, {"measurement": "30-day Survivors", "setting": "[1]; 250 mg/kg/day p.o.", "result": "0/5"}, {"measurement": "Average Survival Time", "setting": "[1]; 250 mg/kg/day p.o.", "result": 18.2, "unit": "days"}, {"measurement": "Life-Prolongation Ratio (%)", "setting": "[1]; 250 mg/kg/day p.o.", "result": 165, "unit": "%"}, {"measurement": "30-day Survivors", "setting": "[1]; 500 mg/kg/day i.p.", "result": "1/5"}, {"measurement": "Average Survival Time", "setting": "[1]; 500 mg/kg/day i.p.", "result": 27.0, "unit": "days"}, {"measurement": "Life-Prolongation Ratio (%)", "setting": "[1]; 500 mg/kg/day i.p.", "result": 245, "unit": "%"}, {"measurement": "30-day Survivors", "setting": "[1]; 500 mg/kg/day p.o.", "result": "0/5"}, {"measurement": "Average Survival Time", "setting": "[1]; 500 mg/kg/day p.o.", "result": 21.0, "unit": "days"}, {"measurement": "Life-Prolongation Ratio (%)", "setting": "[1]; 500 mg/kg/day p.o.", "result": 191, "unit": "%"}, {"measurement": "30-day Survivors", "setting": "[1]; 1,000 mg/kg/day p.o.", "result": "0/5"}, {"measurement": "Average Survival Time", "setting": "[1]; 1,000 mg/kg/day p.o.", "result": 23.0, "unit": "days"}, {"measurement": "Life-Prolongation Ratio (%)", "setting": "[1]; 1,000 mg/kg/day p.o.", "result": 209, "unit": "%"}, {"measurement": "effectiveness against IMC carcinoma", "setting": "[1]; administered orally or intraperitoneally, T/C equal to or greater than 125% regarded as effective", "result": "effective"}, {"measurement": "Proliferation Ratio (%)", "setting": "[2]; 225 mg/kg s.c. on next day", "result": -70, "unit": "%"}, {"measurement": "Proliferation Ratio (%)", "setting": "[2]; 450 mg/kg s.c. on next day", "result": -64, "unit": "%"}, {"measurement": "Proliferation Ratio (%)", "setting": "[2]; 900 mg/kg s.c. on next day", "result": -65, "unit": "%"}]}]}
